Measurements reported in patent US8669360B2, “Methods of converting amorphous drug substance into crystalline form” (Boston Scientific Scimed, Inc., priority 2011, dated 2014).

Key:
[1] = Approximate solubility of amorphous everolimus in solvents; assay type: physicochemical; conditions: room temperature
Protocol: Approximate solubilities of amorphous everolimus were determined by adding the drug gradually with stirring at room temperature to a fixed volume of the solvent until solid remained visible.

[2] = Comparative aqueous solubility of amorphous and crystalline everolimus (FIG. 3); assay type: physicochemical; conditions: aqueous solubility at body temperature (37° C.)
Source text: FIG. 3 is a graph showing the relative water solubilities of the amorphous and crystalline forms of everolimus.

SMILES | Amorphous Everolimus Solubilities ([1]; solvent ACN/water 3:2 v/v) [mg/mL] | Amorphous Everolimus Solubilities ([1]; solvent ACN) [mg/mL] | Amorphous Everolimus Solubilities ([1]; solvent Acetone) [mg/mL] | Amorphous Everolimus Solubilities ([1]; solvent DCM) [mg/mL] | Amorphous Everolimus Solubilities ([1]; solvent DMF/DCM w/w) [mg/mL] | Amorphous Everolimus Solubilities ([1]; solvent DMF/EtOAc w/w) [mg/mL] | Amorphous Everolimus Solubilities ([1]; solvent DMF/THF w/w) [mg/mL] | Amorphous Everolimus Solubilities ([1]; solvent DMF) [mg/mL] | Amorphous Everolimus Solubilities ([1]; solvent EtOH) [mg/mL] | Amorphous Everolimus Solubilities ([1]; solvent IPA) [mg/mL] | Amorphous Everolimus Solubilities ([1]; solvent MEK) [mg/mL] | Amorphous Everolimus Solubilities ([1]; solvent MTBE) [mg/mL] | Amorphous Everolimus Solubilities ([1]; solvent THF) [mg/mL] | Amorphous Everolimus Solubilities ([1]; solvent ethyl acetate) [mg/mL] | Amorphous Everolimus Solubilities ([1]; solvent m-xylene) [mg/mL] | Amorphous Everolimus Solubilities ([1]; solvent n-heptane) [mg/mL] | Amorphous Everolimus Solubilities ([1]; solvent p-dioxane) [mg/mL] | Amorphous Everolimus Solubilities ([1]; solvent water) [mg/mL] | Solubility of crystalline everolimus, times lower than that of amorphous everolimus [2]
CO[C@H]1C[C@@H]2CC[C@@H](C)[C@@](O)(O2)C(=O)C(=O)N2CCCC[C@H]2C(=O)O[C@H]([C@H](C)C[C@@H]2CC[C@@H](OCCO)[C@H](OC)C2)CC(=O)[C@H](C)/C=C(\C)[C@@H](O)[C@@H](OC)C(=O)[C@H](C)C[C@H](C)/C=C/C=C/C=C/1C [Amorphous Everolimus, 40-O-(2-Hydroxyethyl)rapamycin] | ~52 | ~100 | ~100 | ~46 | ~142 | ~119 | ~112 | ~49 | ~100 | ~15 | ~70 | ~62 | ~67 | ~100 | ~76 | ~0.5 | ~58 | ~0.1 | –
CO[C@H]1C[C@@H]2CC[C@@H](C)[C@@](O)(O2)C(=O)C(=O)N2CCCC[C@H]2C(=O)O[C@H]([C@H](C)C[C@@H]2CC[C@@H](OCCO)[C@H](OC)C2)CC(=O)[C@H](C)/C=C(\C)[C@@H](O)[C@@H](OC)C(=O)[C@H](C)C[C@H](C)/C=C/C=C/C=C/1C [crystalline everolimus, 40-O-(2-Hydroxyethyl)rapamycin] | – | – | – | – | – | – | – | – | – | – | – | – | – | – | – | – | – | – | about 25 times
